One test concerns Plutella xylostella. The experiment in a line: Insecticidal test on Plutella xylostella (dip of Chinese cabbage seedlings with laid eggs). The test is classed as in vivo. The following applies: 144 h, seedlings with eggs dipped about 30 seconds, 25° C., 6 days after dip treatment, criteria of Test Example 2, read-out: insecticidal effect (corrected mortality rate), activity level. The source says:
Insecticidal test on Plutella xylostella
Adults of Plutella xylostella were released onto Chinese cabbage seedlings and allowed to lay eggs thereon. At 2 days after the release of the adults, the Chinese cabbage seedlings with laid eggs were dipped for about 30 seconds in agrochemical aqueous dispersions diluted to 500 ppm, each of which contained a different kind of benzoxazole compound represented by the general formula (1) of the present invention as an active ingredient. After air-dried, the seedlings were kept in a thermostatic chamber at 25° C. At 6 days after the dip treatment, the number of hatched larvae per plot was counted, the mortality rate was calculated according to the formula shown below, and the insecticidal effect was evaluated according to the criteria of Test Example 2. This test was conducted in triplicate using 10 adults of Plutella xylostella per plot. Corrected mortality rate (%)=100×(Number of hatched larvae in a non-treatment plot−Number of hatched larvae in a treatment plot)/Number of hatched larvae in a non-treatment plot [Math. 3]

Another test deals with Laodelphax striatella. The experiment in a line: Insecticidal test on Laodelphax striatella (rice seedling dip). The test is classed as in vivo. The following applies: Laodelphax striatellus, 192 h, rice seedlings dipped 30 seconds, 3rd-instar larvae, 8 days after inoculation, read-out: corrected mortality rate, activity level. The source says:
Insecticidal test on Laodelphax striatella
The benzoxazole compounds represented by the general formula (1) of the present invention or salts thereof were separately dispersed in water and diluted to 500 ppm. Rice plant seedlings (variety: Nihonbare) were dipped in the agrochemical dispersions for 30 seconds. After air-dried, each seedling was put into a separate glass test tube and inoculated with ten 3rd-instar larvae of Laodelphax striatella, and then the glass test tubes were capped with cotton plugs. At 8 days after the inoculation, the numbers of surviving larvae and dead larvae were counted, the corrected mortality rate was calculated according to the formula shown below and evaluated according to the criteria shown below. Corrected mortality rate (%)=100×(Survival rate in a non-treatment plot−Survival rate in a treatment plot)/Survival rate in a non-treatment plot [Math. 2] Criteria A: the corrected mortality rate is 100%. B: the corrected mortality rate is 90 to 99%. C: the corrected mortality rate is 80 to 89%. D: the corrected mortality rate is 50 to 79%.

As a reminder, the mortality is the share of the test organisms that died. As for `CCS(=O)(=O)c1cc(C2CC2)cnc1-c1nc2cc(OC(F)(F)F)ccc2o1` [Compound 1-3, 2-(5-Cyclopropyl-3-ethylsulfonylpyridin-2-yl)-5-(trifluoromethoxy)benzo[d]oxazole], the mortality at 500 ppm in the test with Plutella xylostella and in the test on Laodelphax striatella was 100% each time.

As to `CCS(=O)(=O)c1cc(C2CC2)cnc1-c1nc2cc([S+]([O-])C(F)(F)F)ccc2o1` (stereo not shown) [Compound 1-12, 2-(5-Cyclopropyl-3-ethylsulfonylpyridin-2-yl)-5-(trifluoromethylsulfinyl)benzo[d]oxazole], the mortality at 500 ppm with Plutella xylostella and with Laodelphax striatella was 100% each time.

(Values after patent publication US10575525B2, “Benzoxazole compound or salt thereof, agricultural and horticultural insecticide comprising the compound, and method for using the insecticide” (Nihon Nohyaku Co., Ltd., priority 2016, dated 2020).)
